According to US20050106270A1, “Chemical treatment of in vivo tissue to alter charge and net charge density characteristics” (priority 2003, published 2005):
“And” between values parts separate entries of the source, which are not always exact repeats. Equal entries are not always repeated.

Tests used:
articular cartilage = test: Rabbit articular cartilage slices, stress-strain analysis and histology; details: 3 minutes exposure; for High Modulus Region Pa) / Low Region Modulus (Pa): 5 mg/ml in 0.02M disodium phosphate; for histological examination, control vs treated articular cartilage: 5 mg/ml
Experimental: Articular cartilage was dissected from both femoral and tibial chondyles of sacrificed rabbits. Cartilage slices were stored in sterile physiological saline. Eight slices of similar size (about 2 mm×2 mm) were placed in individual Eppendorf tubes. Physiological saline was replaced with 0.02M disodium phosphate at pH 8.5. […] Three specimens were treated with 0.02M disodium phosphate containing 5 mg/ml glutaric anhydride (95%). The remaining three specimens were treated with 0.02M disodium phosphate containing 5 mg/ml of acetic anhydride. Samples were exposed to control solution or acylation chemical for 3 minutes and then washed three times with sterile phosphate buffered saline (0.04M) at pH 7.2.

[1] = test system: cornea of whole porcine (pig) eyes; test: Treatment of trephined enucleated porcine eyes, inspection of corneal curvature; details: 50 mg/mL in 0.2M disodium phosphate pH 9.0, 1 minute, 7 mm trephined ring
Experimental: Whole, fresh porcine (pig) eyes were obtained from a local abattoir and immediately placed in Optisol GS preservation solution. The whole eye was placed in a holder allowing the corneal surface to be exposed. A 7 mm trephine was used to cut through the epithelium and penetrate the superficial corneal tissue. The corneal surface was then flooded with 0.2M disodium phosphate solution, pH 9.0. After 1 minute, the surface of the cornea was dried using an absorbent wipe (Kim Wipe). The corneal surface was immediately treated with 0.2M disodium phosphate solution, pH 9.0, containing 50 mg/mL of glutaric anhydride. After 1 minute of exposure, the cornea was flushed with phosphate buffered saline, pH 7.2. The surface of the cornea was inspected and the corneal curvature examined and compared to untreated eyes. […] The application of glutaric anhydride to a trephined peripheral ring of a pig cornea produced obvious flattening of the central cornea. It is believed that this technique might provide a simple, non-surgical method for treating myopia by inducing swelling in defined ring on the corneal periphery, thereby causing flattening of the central cornea.

[2] = test system: processed human skin (lyophilized dermis); test: Acylation of processed human skin (lyophilized dermis), mechanical properties; details: 1 minute treatment
Experimental: Processed human skin was obtained for treatment. The processed skin was comprised of lyophilized dermis. Four samples were tested, two 2 cm×4 cm specimens and two 2 cm×8 cm specimens. Two sets of specimens were treated with 50 mg/mL of glutaric anhydride (dose #1) and the other two sets with 100 mg/mL of glutaric anhydride (dose #2). The rejuvenation agents were prepared in dilute buffer solution. Prior to treatment with the active agent, skin specimens were pre-treated with buffer alone. Treatments were completed in 1 minute.

[3] = test system: reconstituted, lyophilized human dermis; test: Third series: reconstituted lyophilized human dermis exposed to acylation agent
Excerpt: In a third series of experiments, reconstituted, lyophilized human dermis samples were exposed to the acylation agents (glutaric anhydride). Again, dermal thickness increased from about 1 mm to 2 mm due to increased water binding. In addition, dermal pliability was increased as evidenced by the decreased relaxation time. It is hypothesized that the reactive agent changes the net charge distribution on collagen fibrils reducing the intensity of intrafibrillar interactions and increasing pliability. Increased water binding and pliability are characteristics associated with young skin.

cat cornea = test: In vivo cat model, corneal power by topographical mapping and optical examinations
Experimental: Two cats were treated with the active agent, glutaric anhydride. Treatment was applied to the right eye (OD) while the contra lateral eye (OS) served as a control. Buffer solution (0.02M disodium phosphate solution at pH 9.0) was first applied to the corneal surface. This was immediately followed by application of a solution of glutaric anhydride in disodium phosphate into a peripheral ring of a corneal mold placed on the corneal surface. The mold provided a tight seal to prevent migration of the active agent to the central cornea. Two treatment applications were provided at Day 1 and Day 7. The dosage of the active agent was 50 mg/mL. Eyes were examined for another 7 days following the second treatment.

[4] = test system: cornea of enucleated porcine eyes; test: Enucleated porcine eyes, corneal power by topographical mapping (Optikon 2000); details: for Post-treatment Power (D), corneal power by topographical mapping: 1 minute exposure
Excerpt: Eyes were procured from a local slaughterhouse, positioned in a device to stabilize the eye and subjected to topographical evaluation using the Optikon 2000 system. The corneal surface was dried using sterile gauze and then wetted with drops of buffer solution. The wetted eyes were again dried and exposed again to the same solution. Then a peripheral ring around the circumference of the corneal surface, slightly away from the limbus and the central cornea, was carefully treated by adding drops of buffer containing the active agent, a 20 mg/ml solution of glutaric anhydride. The eyes were then reexamined topographically and photos taken. Following evaluation, the eyes were placed in OptiSol for storage pending additional evaluations. Three eyes were treated using this protocol. In two eyes the active agent at 20 mg/mL was applied to a ring around the corneal periphery. The exposure width was approximately 1 mm. In one eye the active agent at 20 mg/mL was applied to a 2 mm diameter area on the apex of the central cornea. The exposure time was 1 minute. All eyes were then washed with neutral pH phosphate buffer.

dermal tissue = test: Second experiment: stress-strain analysis of dermal tissue strips (Sample C vs Sample D, FIG. 5); parameters: species or system human; details: fresh 100 mg/mL anhydride solution
Experimental: FIG. 5 is a graph showing the stress-strain analysis of dermal tissue specimen C and dermal tissue specimen D after treating the specimens with the same acylating agent under different treatment conditions.
In a second experiment one strip (Sample C) of dermal tissue was exposed to a 100 mg/mL anhydride solution. A second strip (Sample D) was exposed to the same anhydride solution after about 2 minutes.

[5] = test system: sclera tissue of bovine eyes; test: Softening of bovine sclera tissue, compression analysis; details: 100 mg/mL, 1 minute exposure
Experimental: Bovine eyes were procured from a local slaughterhouse and stored in Optisol solution. Whole eyes were removed from the preservation solution and the sclera dried using Kim wipes. A solution of 0.2M disodium phosphate, pH 9.5 was applied to the dried sclera tissue. The tissue was exposed to the disodium phosphate solution for 1 minute. The tissue was again dried using a Kim wipe and a solution containing 100 mg/mL of glutaric anhydride in […] was exposed to the anhydride solution for 1 minute and the tissue then thoroughly rinsed with sterile 0.02M phosphate buffer, pH 7.2. The exposed tissue was examined for tissue softening. […] Sclera tissue softening was also obvious by application of thumb pressure to treated and untreated areas of the sclera tissue. It is proposed that sclera softening using acylating agents may be used to expand sclera tissue, thereby permitting more space for the ciliary body to expand and contract the lens.

Structure (SMILES): CC(=O)OC(C)=O [acetic anhydride]
- High Modulus Region Pa) (articular cartilage): 47.7 Pa
- Low Region Modulus (Pa) (articular cartilage): 16.6 Pa
- histological examination, control vs treated articular cartilage (articular cartilage): no differences

Structure (SMILES): O=C1CCCC(=O)O1 [glutaric anhydride]
- High Modulus Region Pa) (articular cartilage): 58.1 Pa
- Low Region Modulus (Pa) (articular cartilage): 26.7 Pa
- histological examination, control vs treated articular cartilage (articular cartilage): no differences
- central corneal surface compared to untreated eyes [1]: clearly depressed or flattened
- Strain (%) ([2]; dose 50 mg/mL): 79%
- Stress (MPa) ([2]; dose 50 mg/mL): 2.5 MPa
- Thickness ([2]; dose 50 mg/mL): 1.77 mm
- Strain (%) ([2]; dose 100 mg/mL): 84%
- Stress (MPa) ([2]; dose 100 mg/mL): 2.7 MPa
- Thickness ([2]; dose 100 mg/mL): 2.55 mm
- dermal pliability [3]: increased
- relaxation time [3]: decreased
- dermal thickness after treatment ([3]; increased from about 1 mm): ~2 mm
- optical examinations, including slit-lamp biomicroscopy and Shiotz tonometry, treated vs control eyes (cat cornea; 7 days following the second treatment, 50 mg/mL): no differences
- Average Post-treat (D), corneal power by topographical mapping (cat cornea; right eye (OD), 50 mg/mL in peripheral ring, two applications at Day 1 and Day 7): 38.88 D and 40.68 D
- Post-treatment Power (D), corneal power by topographical mapping ([4]; 20 mg/mL applied to 2 mm diameter area on apex of central cornea): 41.3 D
- Post-treatment Power (D), corneal power by topographical mapping ([4]; 20 mg/mL applied to about 1 mm wide ring around corneal periphery): 37.4 D and 40.9 D
- appearance of eyes by visual examination ([4]; after treatment, 20 mg/mL, 1 minute): appeared clear
- increase of refractive power ([4]; treatment of the central cornea, 20 mg/mL): about 0.7 diopters
- reduction of corneal power ([4]; treatment of the periphery of the cornea, 20 mg/mL): more than 2 diopters
- thickness of Sample C relative to Sample D (dermal tissue; vs Sample D (hydrolyzed solution)): significantly thicker
- elastic and viscous stress-strain curves (dermal tissue; vs Sample D (same solution after about 2 minutes, hydrolyzed)): shifted to higher percent strain
- sclera tissue softening by thumb pressure, treated vs untreated areas [5]: obvious
- low modulus by compression analysis ([5]; after 0.2M disodium phosphate pH 9.5): significant loss of low modulus
